Results from paper PMC7283928, “In vitro Mechanistic Exploration of Novel Spiropyrrolidine Heterocyclic Hybrids as Anticancer Agents” (Frontiers in Chemistry, 2020).
Where two headings read alike, the source gives them in different places.

How the values were obtained:
[1] = test system: A549 human alveolar basal epithelial cells; experiment: MTT cell viability and proliferation assay, A549 cells; type: cell-based
Procedure: (§1) In order to study the molecular biology effects of synthesized spiropyrrolidine heterocyclic hybrids, we have used the in vitro toxicology tests and for that, two different cell types, each of cancer and non-cancer origin were employed. The non-cancer cell lines include the L929 mouse fibroblasts and MCF10 breast cells, while the cancer cell lines are A549 human alveolar basal epithelial cells and Jurkat human T lymphocyte cells. […] All the biological studies were carried by selecting Camptothecin (CPT) as a positive control and the cells of no treatment as the negative control. The reason for selecting this particular compound as a positive control is that it is a well-known anticancer agent and acts by the mechanism of topoisomerase I inhibition along with the DNA cleavage, subsequent inhibition of litigation, and finally leads to DNA strand breaks. The detailed procedures for the cell culturing and assay protocols were mentioned elaborately in our earlier publications (Bwatanglang et al., [2016a],[b]; Kumar et al., [2018]). Each experiment was repeated thrice and the results expressed as the mean ± standard deviation of all the data values. From the graph, the ^* and ^** corresponds to p < 0.05 and p < 0.01 vs. the untreated-control measurements.
(§2) Also, the loss of viability seems to be increased with an increase in the concentration and incubation period and this provides the preliminary information that the tested compounds are maintaining some levels of therapeutic behavior toward the cancer cells and if it can be guided carefully, can lead to the anticancer activity. […] This difference in the sensitivity of two cancer cells to the same testing compound can be attributed to the changes in the resistive response of each cell types which is supported by the intracellular protein mechanisms (Mohammad et al., [2014]; Bwatanglang et al., [2017]). Since the amount of intracellular proteins secreted by the cells are unique to each individual cell type and so in that way some cells may react very fast as compared to the others. Also, the efficiency of any chemotherapeutic agent is decided by its ability to reduce the cell count at the earliest possible time and in that way we have identified the A549 cells to be the highly responsive cell type to the compound 5e over a 24 h period as compared to the other compounds, cells, and time periods. The visual observation of cells by means of microscopic observation also be confirming for a decrease in the number of cells for the compound 5e treated cells as against the positive control of CPT (30 μM) and negative control of without any treatment (Figures S11, S11a). […] In a general way, our interest is with the therapeutic agent of higher efficiency at the shortest exposure period and so we carried the following mechanistic studies linked to the cell death for the compound 5e at the 24 h exposure period only.

A549 cells = experiment: Apoptosis assay (PI / Annexin V-FITC) in A549 cells; type: cell-based, human; settings: for live cells: lower left quadrant; for apoptotic cells: lower right quadrant; for late apoptotic or early necrosis cells: upper right quadrant; for cells experiencing the apoptotic pathway: A549, 48 h incubation (Figure S12)
Procedure: as §1
The compound 5e induced apoptotic pathway for A549 treated cells over a 24 h period is compared against the positive (CPT, 30 μM) and negative controls and the results are shown in Figure 3. Similarly, the apoptosis study over the 48 h exposure period is shown in the supporting information of Figure S12. As compared to the behavior of cells shown in Figures 3A-1,B-1, the compound 5e treated cells (C-1) are experiencing a significant amount of apoptotic pathway. […] These numbers for the compound 5e treated cells are getting shifted to 39% of live cells, 40% apoptotic, and 18% late apoptotic or early necrosis pathways. The observation of only 9% apoptotic cells for the CPT treated cells while 40% for the 5e treated cells provides a preliminary indication of the way of handling the cancer cells by the compound 5e. Since the CPT acts directly onto the cancer cells and responsible for the accidental or irreversible pathway of reducing the cancer cell number and however, the compound 5e works in a systematic way and induces the cancer cell death almost similar to CPT. […] Since the cells which are experiencing the apoptotic pathway can be reversible and in that way the healthy normal cells can be reverted to their normal stage and at the same time the cancer cells can be molded to the late apoptotic or early necrosis pathways by applying some physiological changes to the cells.
Figure 3 Comparison of the apoptosis assay results for 5e treated cells along with the CPT treated and untreated cells over 24 h period for A549 cells. From the figure, A-1 & A-2 corresponds to the negative control, B-1 & B-2 for the positive control of CPT, and C-1 & C-2 for our testing sample 5e.

caspases in A549 cells = experiment: Caspase activity by fluorescence microscopy in A549 cells; type: cell-based, human; settings: A549, 24 h, 5e at IC50, compared with CPT treated cells (Figure 4B)
Procedure: as §1, with “The detailed procedures for the cell culturing and assay protocols were mentioned elaborately in our earlier publications (Bwatanglang et al., [2016a],[b]; Kumar et al., [2018]).” left out, “From the graph, the ^* and ^** corresponds to p < 0.05 and p < 0.01 vs. the untreated-control measurements.” left out
Based on the results provided by the apoptotic assay, compound 5e was further tested toward the role of caspases as these are the proteins which get released in response to the specific death stimuli. […] Similarly, the observation of no such green fluorescence in the cytoplasm of cells shown in Figure 4A means that there is no initiation of such pathways in that particular culture.

[2] = test system: Jurkat human T lymphocyte cells; experiment: MTT cell viability and proliferation assay, Jurkat cells; type: cell-based; settings: for IC50: Homo sapiens, MTT
Procedure: as §1, §2

[3] = MTT cell viability assay, non-cancer L929 cells; type: cell-based; settings: mouse, L929 mouse fibroblast cells (non-cancer)
Procedure: as §1, with “measurements. […]” for “measurements.”

[4] = MTT cell viability assay, non-cancer MCF10 cells; type: cell-based; settings: human, MCF10 breast cells (non-cancer)
Procedure: as §1, with “measurements. […]” for “measurements.”

[5] = 24 h incubation, read-out: IC50 μM (24 h) A549
[6] = 48 h incubation, read-out: IC50 μM (48 h) A549
[7] = A549, 24 h, 5e at IC50 (55 μM), CPT 30 μM
[8] = 24 h incubation, read-out: IC50 μM (24 h) Jurkat
[9] = 48 h incubation, read-out: IC50 μM (48 h) Jurkat

Row | SMILES | IC50 [1, 5] | IC50 [1, 6] | IC50 [2, 8] | IC50 [2, 9] | other results
1 | COc1ccc(C2C([N+](=O)[O-])C(Cc3ccc(O)cc3)N(C)C23C(=O)c2cccc4cccc3c24)cc1 (stereo not shown) [5e, Spiro[acenaphthene-2′.2-pyrrolidin]-1′-one] | 55.2 ± 2.15 µM | 20.5 ± 3.6 µM | – | – | live cells (A549 cells; [7]): 39%; apoptotic cells (A549 cells; [7]): 40%; late apoptotic or early necrosis cells (A549 cells; [7]): 18%; cells experiencing the apoptotic pathway (A549 cells): 88%; caspase release (green fluorescence in cytoplasm) (caspases in A549 cells): higher than the corresponding cells shown in Figure 4B
2 | CN1C(Cc2ccc(O)cc2)C([N+](=O)[O-])C(c2cccc([N+](=O)[O-])c2)C12C(=O)c1cccc3cccc2c13 (stereo not shown) [5f, Spiro[acenaphthene-2′.2-pyrrolidin]-1′-one] | – | – | – | – | loss of cell viability ([2]; highest concentration of 100 μM, 48 h): 90%
3 | CN1C(Cc2ccc(O)cc2)C([N+](=O)[O-])C(c2cccc([N+](=O)[O-])c2)C12C(=O)c1cccc3cccc2c13 (stereo not shown) [C00006] | 70.7 ± 3.45 µM | 41.2 ± 2.4 µM | 92.5 ± 2.8 µM | 62.5 ± 4.4 µM | –
4 | CC[C@@]1(O)C(=O)OCc2c1cc1n(c2=O)Cc2cc3ccccc3nc2-1 [CPT, Camptothecin] | – | – | – | – | mortality at 30 μM [3]: ~50%; mortality at 30 μM [4]: ~50%; M2 (cells experiencing the apoptotic pathway) (A549 cells; [7]): 48%; live cells (A549 cells; [7]): 45%; apoptotic cells (A549 cells; [7]): 9%; late apoptotic or early necrosis cells (A549 cells; [7]): 36%; cells experiencing the apoptotic pathway (A549 cells): 63%

Now from value to compound, other results behind:

Row | IC50 [1, 5] | IC50 [1, 6] | IC50 [2, 8] | IC50 [2, 9] | SMILES | other results
5 | 84.2 ± 4.2 µM | 68.5 ± 3.1 µM | 65.6 ± 2.1 µM | 31.4 ± 2.3 µM | CN1C(Cc2ccc(O)cc2)C([N+](=O)[O-])C(c2ccccc2)C12C(=O)c1cccc3cccc2c13 (stereo not shown) [C00001] | –
6 | 79.5 ± 3.15 µM | 36.2 ± 4.5 µM | 82.4 ± 4 µM | 52.2 ± 3.5 µM | CN1C(Cc2ccc(O)cc2)C([N+](=O)[O-])C(c2ccc(Br)cc2)C12C(=O)c1cccc3cccc2c13 (stereo not shown) [C00002] | –
7 | 77.3 ± 4.56 µM | 52.3 ± 2.2 µM | 63.2 ± 3.2 µM | 59.5 ± 4.1 µM | CN1C(Cc2ccc(O)cc2)C([N+](=O)[O-])C(c2ccc(Cl)cc2)C12C(=O)c1cccc3cccc2c13 (stereo not shown) [C00003] | –
8 | 82.1 ± 2.55 µM | 70.2 ± 2.8 µM | 78.2 ± 2.6 µM | 47.5 ± 3.8 µM | Cc1ccc(C2C([N+](=O)[O-])C(Cc3ccc(O)cc3)N(C)C23C(=O)c2cccc4cccc3c24)cc1 (stereo not shown) [C00004] | –
9 | – | – | 81.2 ± 3.1 µM | 61.2 ± 4.6 µM | COc1ccc(C2C([N+](=O)[O-])C(Cc3ccc(O)cc3)N(C)C23C(=O)c2cccc4cccc3c24)cc1 (stereo not shown) [C00005] | –
